Measurements reported in patent US20160158200A1, “Combinations of Hepatitis C Virus Inhibitors” (priority 2013, published 2016).

What was measured:
[1] = test system: HCV genotype 1a L31V variant with leucine 31 changed to valine in the NS5A protein; assay: microbe, parasite or virus in culture; assay type: cell-based; details: genotype 1a L31V replicon; test compound titrated with compound N47 fixed at 200 nM versus singly
[2] = test system: HCV genotype 1a Y93H variant with tyrosine 93 changed to histidine in the NS5A protein; assay: microbe, parasite or virus in culture; assay type: cell-based; details: genotype 1a Y93H replicon; test compound titrated with compound N47 fixed at 200 nM versus singly
In short: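 In an HCV genotype 1a replicon cell-based assay carrying the NS5A Y93H substitution, BMS-790052 was tested alone and in combination with a fixed amount of a second test compound. The combinations were examined for synergistic activity.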

Row | Compound | Fold-Synergistic G-1a (L31V) [1] | Fold-Synergistic G-1a (Y93H) [2]
1 | O=C(Cc1ccccc1)N1CCC[C@H]1c1nc2cc(-c3ccc4nc([C@@H]5CCCN5C(=O)Cc5ccccc5)[nH]c4c3)ccc2[nH]1 | <10 fold | <10 fold
2 | CC(C)[C@H](NC(=O)OCc1ccccc1)C(=O)Nc1ccc(-c2cnc(-c3ccc(NC(=O)[C@@H](NC(=O)OCc4ccccc4)C(C)C)cc3)o2)cc1 | <10 fold | <10 fold
3 | O=C(OCc1ccccc1)N1C[C@H](O)C[C@H]1c1nc2cc(C#Cc3ccc4[nH]c([C@@H]5C[C@@H](O)CN5C(=O)OCc5ccccc5)nc4c3)ccc2[nH]1 | <10 fold | <10 fold
4 | COC(=O)N[C@H](C(=O)N1[C@@H]2C[C@@H]2C[C@H]1c1ncc(-c2cccc(-c3ccc4cc(-c5cnc([C@H]6C[C@@H]7C[C@@H]7N6C(=O)[C@@H](NC(=O)OC)C(C)C)[nH]5)ccc4c3)c2)[nH]1)C(C)C | <10 fold | >10 fold
5 | COC(=O)N[C@H](C(=O)N1CCC[C@H]1c1ncc(-c2cccc(C#Cc3cccc(-c4cnc([C@@H]5CCCN5C(=O)[C@@H](NC(=O)OC)C(C)C)[nH]4)c3)c2)[nH]1)C(C)C | >10 fold | >10 fold
6 | COC(=O)N[C@H](C(=O)N1[C@@H]2C[C@@H]2C[C@H]1c1ncc(-c2ccc([C@@H]3C[C@H]3c3ccc(-c4cnc([C@@H]5C[C@H]6C[C@H]6N5C(=O)[C@@H](NC(=O)OC)C(C)C)[nH]4)cc3)cc2)[nH]1)C(C)C | >10 fold | >10 fold
7 | COC(=O)N[C@H](C(=O)N1[C@@H]2C[C@@H]2C[C@H]1c1ncc(-c2ccc([C@H]3C[C@@H]3c3ccc(-c4cnc([C@@H]5C[C@H]6C[C@H]6N5C(=O)[C@@H](NC(=O)OC)C(C)C)[nH]4)cc3)cc2)[nH]1)C(C)C | >10 fold | <10 fold
8 | COC(=O)N[C@H](C(=O)N1[C@H](c2ncc(-c3ccc(-c4ccc(-c5cnc([C@@H]6C[C@@H](C)[C@H](C)N6C(=O)[C@@H](NC(=O)OC)C(C)C)[nH]5)cc4)cc3)[nH]2)C[C@@H](C)[C@@H]1C)C(C)C | >100 fold | >100 fold
9 | COC(=O)N[C@H](C(=O)N1[C@H](c2ncc(-c3ccc(-c4ccc(-c5cnc([C@@H]6C[C@H](C)[C@H](C)N6C(=O)[C@@H](NC(=O)OC)C(C)C)[nH]5)cc4)cc3)[nH]2)C[C@H](C)[C@@H]1C)C(C)C | >100 fold | >100 fold
10 | COC(=O)N[C@H](C(=O)N1[C@@H]2C[C@@H]2C[C@H]1c1ncc(-c2ccc(-c3ccc(-c4ccc(-c5cnc([C@@H]6C[C@H]7C[C@H]7N6C(=O)[C@@H](NC(=O)OC)C(C)C)[nH]5)cc4)c4[nH]ccc34)cc2)[nH]1)C(C)C | >10 fold | >10 fold
11 | COC(=O)N[C@H](C(=O)N1[C@@H](C)CC[C@H]1c1ncc(-c2ccc(-c3ccc4cc(-c5cnc([C@@H]6CC[C@H](C)N6C(=O)[C@@H](NC(=O)OC)C(C)C)[nH]5)ccc4c3)cc2)[nH]1)C(C)C | <10 fold | >100 fold
12 | COC(=O)N[C@H](C(=O)N1[C@@H](C)CC[C@H]1c1ncc(-c2ccc(-c3ccc4cc(-c5cnc([C@@H]6CC[C@H](C)N6C(=O)[C@@H](NC(=O)OC)C6CCOCC6)[nH]5)ccc4c3)cc2)[nH]1)C1CCOCC1 | <10 fold | >10 fold
13 | COC(=O)N[C@H](C(=O)N1CCOC[C@H]1c1ncc(-c2ccc(-c3ccc(-c4cnc([C@@H]5COCCN5C(=O)[C@@H](NC(=O)OC)C(C)C)[nH]4)cc3)cc2)[nH]1)C(C)C | >100 fold | >100 fold
14 | COC(=O)N[C@H](C(=O)N1[C@H]2C[C@@]2(C)C[C@H]1c1ncc(-c2ccc(-c3ccc(-c4cnc([C@@H]5C[C@]6(C)C[C@@H]6N5C(=O)[C@@H](NC(=O)OC)C(C)C)[nH]4)cc3)cc2)[nH]1)C(C)C | >100 fold | >100 fold
15 | COC(=O)N[C@H](C(=O)N1[C@@H]2C[C@@H]2C[C@H]1c1ncc(C#Cc2ccc3cc(-c4cnc([C@@H]5C[C@H]6C[C@H]6N5C(=O)[C@@H](NC(=O)OC)C(C)C)[nH]4)ccc3c2)[nH]1)C(C)C | >100 fold | >100 fold
16 | COC(=O)NC(C(=O)N1[C@@H](C)CC[C@H]1c1nc2ccc3cc(C#CC#Cc4ccc5c(ccc6nc([C@@H]7CC[C@H](C)N7C(=O)C(NC(=O)OC)C7CCOCC7)[nH]c65)c4)ccc3c2[nH]1)C1CCOCC1 (stereo partly shown) | <10 fold | <10 fold

Row | Compound | Fold-Synergistic G-1a (L31V) [1] | Fold-Synergistic G-1a (Y93H) [2]
17 | COC(=O)N[C@H](C(=O)N1C[C@@H](C)C[C@H]1c1ncc(-c2ccc(-c3ccc4cc(-c5cnc([C@@H]6C[C@H](C)CN6C(=O)[C@@H](NC(=O)OC)C(C)C)[nH]5)ccc4c3)cc2)[nH]1)C(C)C | <10 fold | >10 fold
18 | COC(=O)N[C@H](C(=O)N1[C@@H]2C[C@@H]2C[C@H]1c1nc(-c2ccc3cc(-c4ccc5cc(-c6c[nH]c([C@@H]7C[C@H]8C[C@H]8N7C(=O)[C@@H](NC(=O)OC)C(C)C)n6)ccc5c4)ccc3c2)c[nH]1)C(C)C | <10 fold | <10 fold
19 | COC(=O)N[C@H](C(=O)N1[C@@H]2C[C@@H]2C[C@H]1c1ncc(-c2ccc(-c3ccc4nc(-c5cnc([C@@H]6C[C@H]7C[C@H]7N6C(=O)[C@@H](NC(=O)OC)C(C)C)[nH]5)ccc4c3)cc2)[nH]1)C(C)C | <10 fold | >10 fold
20 | COC(=O)N[C@H](C(=O)N1C[C@H](C)C[C@H]1c1ncc(-c2ccc(-c3ccc4cc(-c5cnc([C@@H]6C[C@@H](C)CN6C(=O)[C@@H](NC(=O)OC)C(C)C)[nH]5)ccc4c3)cc2)[nH]1)C(C)C | <10 fold | >10 fold
21 | COC(=O)N[C@H](C(=O)N1[C@H](c2nc(-c3ccc(-c4ccc(-c5c[nH]c([C@@H]6C[C@@H]7CCC[C@@H]7N6C(=O)[C@@H](NC(=O)OC)C(C)C)n5)cc4)cc3)c[nH]2)C[C@@H]2CCC[C@@H]21)C(C)C | >100 fold | >100 fold
22 | COC(=O)N[C@H](C(=O)N1CCCC1c1cn(-c2ccc(-c3ccc(-n4cnc(C5CCCN5C(=O)[C@@H](NC(=O)OC)C(C)C)c4)cc3)cc2)cn1)C(C)C (stereo partly shown) | >10 fold | >10 fold
23 | COC(=O)N[C@H](C(=O)N1[C@@H]2C[C@@H]2C[C@H]1c1nc(-c2ccn3nc(-c4ccc(-c5cnc([C@@H]6C[C@H]7C[C@H]7N6C(=O)[C@@H](NC(=O)OC)C(C)C)[nH]5)cc4)cc3c2)c[nH]1)C(C)C | >100 fold | >100 fold
24 | COC(=O)N[C@H](C(=O)N1[C@@H]2C[C@@H]2C[C@H]1c1nc(-c2cccc3c(-c4ccc(-c5cnc([C@@H]6C[C@H]7C[C@H]7N6C(=O)[C@@H](NC(=O)OC)C(C)C)[nH]5)cc4)cccc23)c[nH]1)C(C)C | >100 fold | >100 fold
25 | COC(=O)N[C@H](C(=O)N(C)[C@@H](C)c1ncc(-c2ccc(C#Cc3ccc(-c4cnc([C@H](C)N(C)C(=O)[C@@H](NC(=O)OC)C(C)C)[nH]4)cc3)cc2)[nH]1)C(C)C | >10 fold | <10 fold
26 | C=C1C[C@@H](c2nc(-c3ccc(-c4ccc5cc(-c6c[nH]c([C@@H]7CC(=C)CN7C(=O)[C@@H](NC(=O)OC)C(C)C)n6)ccc5c4)cc3)c[nH]2)N(C(=O)[C@@H](NC(=O)OC)C(C)C)C1 | <10 fold | >100 fold
27 | COC(=O)N[C@H](C(=O)N1[C@@H]2C[C@@H]2C[C@H]1c1ncc(-c2ccc(C#Cc3ccc(-c4cnc([C@@H]5C[C@H]6C[C@H]6N5C(=O)[C@@H](NC(=O)OC)C(C)C)[nH]4)cc3C)c(C)c2)[nH]1)C(C)C | <10 fold | <10 fold
28 | COC(=O)N[C@H](C(=O)N1[C@@H]2CCC[C@@H]2C[C@H]1c1nc(-c2ccc(-c3ccc(-c4c[nH]c([C@@H]5C[C@H]6CCC[C@H]6N5C(=O)[C@@H](NC(=O)OC)C(C)C)n4)cc3)cc2)c[nH]1)C(C)C | >100 fold | >100 fold
29 | COC(=O)N[C@H](C(=O)N1[C@@H]2C[C@@H]2C[C@H]1c1nc(-c2ccc3oc(-c4ccc(-c5cnc([C@@H]6C[C@H]7C[C@H]7N6C(=O)[C@@H](NC(=O)OC)C6CCOCC6)[nH]5)cc4)cc3c2)c[nH]1)C1CCOCC1 | <10 fold | <10 fold
30 | COC(=O)N[C@H](C(=O)N1CCOC[C@H]1c1nc(-c2ccc(-c3ccc4cc(-c5c[nH]c([C@@H]6COCCN6C(=O)[C@@H](NC(=O)OC)C(C)C)n5)ccc4c3)cc2)c[nH]1)C(C)C | >10 fold | >10 fold
31 | COC(=O)N[C@H](C(=O)N1CCCC[C@H]1c1nc(-c2ccc(-c3ccc4cc(-c5c[nH]c([C@@H]6CCCCN6C(=O)[C@@H](NC(=O)OC)C(C)C)n5)ccc4c3)cc2)c[nH]1)C(C)C | >10 fold | <10 fold
32 | COC(=O)N[C@H](C(=O)N1[C@H](C)CC[C@H]1c1nc(-c2ccc(-c3ccc4cc(-c5c[nH]c([C@@H]6CC[C@@H](C)N6C(=O)[C@@H](NC(=O)OC)C(C)C)n5)ccc4c3)cc2)c[nH]1)C(C)C | >10 fold | <10 fold
